According to ChEMBL document CHEMBL1131055, “Discovery of type II (covalent) inactivation of S-adenosyl-L-homocysteine hydrolase involving its "hydrolytic activity": synthesis and evaluation of dihalohomovinyl nucleoside analogues derived from adenosine” (J Med Chem, 1998):

Assays:
Adenosylhomocysteinase [1] = target: T1, Adenosylhomocysteinase (Homo sapiens, UniProt P23526); test: The kinetic constant for inhibition of S-adenosyl-homocysteine hydrolase by the compound
Target sequence in this assay (P23526 whole entry): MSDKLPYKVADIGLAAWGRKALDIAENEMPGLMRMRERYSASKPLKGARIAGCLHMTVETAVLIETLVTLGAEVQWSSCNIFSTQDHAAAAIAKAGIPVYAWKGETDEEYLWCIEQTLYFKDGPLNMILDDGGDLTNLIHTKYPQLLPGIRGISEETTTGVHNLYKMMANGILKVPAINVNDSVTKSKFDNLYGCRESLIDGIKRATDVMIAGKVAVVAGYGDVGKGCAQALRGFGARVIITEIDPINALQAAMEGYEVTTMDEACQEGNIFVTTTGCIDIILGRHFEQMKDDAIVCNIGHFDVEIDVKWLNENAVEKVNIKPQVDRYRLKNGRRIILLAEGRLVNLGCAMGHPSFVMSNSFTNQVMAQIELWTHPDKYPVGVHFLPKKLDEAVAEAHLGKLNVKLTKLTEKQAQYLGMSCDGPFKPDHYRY

[2] = Ratio of Kinact value to that of Ki value
Adenosylhomocysteinase [3] = target: T1, Adenosylhomocysteinase; test: The kinetic constant for inhibition of S-adenosyl-homocysteine hydrolase obtained from human placenta by the compound
Target sequence in this assay (P23526 2-432 limits assumed): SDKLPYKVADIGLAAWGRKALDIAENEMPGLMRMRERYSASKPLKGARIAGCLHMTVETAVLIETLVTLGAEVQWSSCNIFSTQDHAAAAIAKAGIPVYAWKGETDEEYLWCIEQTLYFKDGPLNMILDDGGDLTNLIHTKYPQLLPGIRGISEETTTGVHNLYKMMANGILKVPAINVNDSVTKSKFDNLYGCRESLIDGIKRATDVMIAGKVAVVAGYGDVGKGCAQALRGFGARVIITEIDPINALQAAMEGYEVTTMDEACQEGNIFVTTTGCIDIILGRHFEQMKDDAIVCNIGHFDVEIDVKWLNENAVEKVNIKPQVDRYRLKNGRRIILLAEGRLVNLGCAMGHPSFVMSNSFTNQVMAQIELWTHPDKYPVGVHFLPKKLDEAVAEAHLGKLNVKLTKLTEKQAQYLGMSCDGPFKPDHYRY

| Ki (Adenosylhomocysteinase [1]) [µM] | K inact/Ki [2] [M⁻¹ s⁻¹] | K inact (Adenosylhomocysteinase [3]) [min⁻¹] | Structure (SMILES) |
| --- | --- | --- | --- |
| 3.1 | 193 | 0.036 | Nc1ncnc2c1ncn2C1O[C@H](C=C(Br)Br)[C@@H](O)[C@H]1O (some centres undefined) |
| 3.9 | 170 | 0.04 | Nc1ncnc2c1ncn2C1O[C@H](/C=C(/F)Br)[C@@H](O)[C@H]1O (some centres undefined) |
| 3.6 | 375 | 0.081 | Nc1ncnc2c1ncn2C1O[C@H](/C(Br)=C\Br)[C@@H](O)[C@H]1O (some centres undefined) |
